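96-well plates; 48 h exposure; 5 concentrations. Endpoints by linear interpolation between flanking doses. Not reached: highest tested concentration assigned. GI50: concentration for 50% inhibition of growth. The concentration for full growth arrest is given as TGI.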
Legend:
Test in all cases: growth of human tumour cells (NCI), 48 h
HCC-2998 colon = tested on: HCC-2998 colon
SNB-75 CNS = tested on: SNB-75 CNS
U251 CNS = tested on: U251 CNS
SK-OV-3 ovarian = tested on: SK-OV-3 ovarian
HCT-116 colon = tested on: HCT-116 colon
SW-620 colon = tested on: SW-620 colon
SK-MEL-5 melanoma = tested on: SK-MEL-5 melanoma
MALME-3M melanoma = tested on: MALME-3M melanoma

Row | Compound | TGI (HCC-2998 colon) [µM] | TGI (SNB-75 CNS) [µM] | TGI (U251 CNS) [µM] | TGI (SK-OV-3 ovarian) [µM] | TGI (HCT-116 colon) [µM] | TGI (SW-620 colon) [µM] | TGI (SK-MEL-5 melanoma) [µM] | GI50 (HCC-2998 colon) [µM] | GI50 (SNB-75 CNS) [nM] | GI50 (U251 CNS) [µM] | GI50 (SK-OV-3 ovarian) [µM] | GI50 (HCT-116 colon) [nM] | GI50 (SW-620 colon) [µM] | GI50 (SK-MEL-5 melanoma) [nM] | GI50 (MALME-3M melanoma) [µM] | TGI (MALME-3M melanoma) [µM]
1 | CC1=CC[C@@H]2[C@@H](CC[C@@]2(C)O)C(C)(C)[C@H]1CC[C@@H]1[C@@]2(C)CCC(=O)C(C)(C)O[C@@H]2CC[C@]1(C)O | 40.9 | > 100 | > 100 | > 100 | 42 | > 100 | 39.1 |  |  |  |  |  |  |  |  | 
2 | COC1=CC(c2ccc[nH]2)=N/C1=C\c1[nH]c(C)c(C(=O)CCC(=O)Oc2ccc3c(c2)CCC2C3CC[C@]3(C)C(=O)CC[C@@H]23)c1C (some centres undefined) | > 96.1 | > 96.6 | > 86.7 | > 100 | > 100 | > 37.9 | 19.6 | 16.8 | > 42700 | 3.31 | > 100 | 773 | 0.773 | 3480 | 29.2 | > 100
3 | Cc1cc(N(CCCl)CCCl)ccc1C=Nc1cccnc1 | 32 | > 100 | > 100 | > 59.3 | > 100 | > 100 | 41.7 | 16.8 | 11500 | 18.5 | 7.57 | 22700 | 61.2 | 14600 | 22.4 | > 100
4 | COc1ccc2c(c1)C(=O)c1c-2c(NCCCN(C)C)nc2ccccc12 | 11.7 | 11.8 | 4.42 |  | 2.65 | 2.99 | 14.4 | 2.48 | 997 | 1.98 |  | 1250 | 1.45 | 3870 | 3.86 | 15.5
5 | Cc1ccc(NS(=O)(=O)c2ccc(-c3cnc(C4CC4)o3)cc2)cc1 | 23.5 | 4.25 | 17.5 | 19.6 | 15.2 | 13.2 | 8.29 | 10.8 | 1130 | 4.18 | 4.81 | 2490 | 2.25 | 2430 | 2.48 | 17.6
6 | CN(C)c1c(Cl)c(=O)oc2c1ccc1nc(-c3ccccc3)sc12 | > 100 |  | > 100 |  | > 100 | > 100 | > 100 |  |  |  |  |  |  |  |  | > 100
7 | COCCNCC(O)Cn1c2ccc(Cl)cc2c2cc(Cl)ccc21 (centres undefined) | 3.45 | 4.15 | 3.93 | 5.93 |  | 3.64 | 3.18 | 1.81 | 1120 | 1.94 | 2.46 |  | 1.83 | 1710 | 1.98 | 3.89
8 | CS(=O)(=O)c1nccc(-c2c(-c3cccc(OCc4ccc(F)cc4)c3)nc3sccn23)n1 | 5.54 | > 83.1 | > 100 | > 100 | > 100 | > 100 | > 24.2 | 2.28 | > 39500 | 33.1 | 47.4 | 5650 | 5.32 | 2510 | 67.3 | > 100
9 | COc1ccc(-c2nc(-c3nc4ccc(F)cc4[nH]3)cc3c2[nH]c2ccccc23)cc1 | 26.2 |  | 7.26 | > 100 | 8.25 | > 100 | 4.61 | 3.71 |  | 2.42 | 4 | 2690 | 3.73 | 1800 | 2.33 | 8.99
10 | CCN(CC)c1ccc(NC(C(=O)c2ccccc2)c2ccccc2)cc1 (centres undefined) | 8.62 | 10.7 | 10 | 78.3 | 6.6 | 5.93 | 4.66 | 2.81 | 2240 | 2.72 | 18.6 | 2580 | 2.25 | 2000 | 2.76 | 7.44
11 | COc1ccccc1-c1cc2c3c(nc4ccccc42)C(=O)c2cccnc2-c3n1 | 30.6 | 22.6 | 11.4 | 51.2 | 14.6 | 27.3 | 25.4 | 14.8 | 8890 | 3.77 | 20.8 | 4890 | 9.58 | 12500 | 15.4 | 28.7
12 | CCC(=O)Sc1ccccc1C(=O)Nc1ccc(Cl)cc1 | 47 | 98.2 | 32.3 | 53.9 | 13.1 | 25.8 | 17.4 | 18.5 | 19200 | 5.73 | 18.7 | 3580 | 3.63 | 4220 | 8.76 | 51.2
13 | CO/N=C(\c1ccccc1)c1cnn(-c2ccccc2)c1N | > 25 | > 25 | > 25 | > 25 | > 25 | > 25 | > 25 | > 25 | > 25000 | > 25 | > 25 | > 25000 | > 25 | > 25000 | > 25 | > 25
14 | COc1cc2c(-c3nc4cc(Cl)c(F)cc4s3)cc(=O)oc2c(C)c1OC | 4.29 | 1.92 | 2.66 | 3.03 |  |  | 2.56 | 2.4 | 620 | 1.29 | 1.63 |  |  | 1230 | 0.311 | 1.14
15 | O=C1Nc2ccc(Cl)cc2/C1=C\c1c(-c2ccc(F)cc2)nc2ccccn12 | 5.1 | 7.97 | 5.13 | 5.06 |  | 11.7 | 7.45 | 2.01 | 2080 | 2.05 | 2.18 |  | 3 | 2380 | 3.8 | 14.8
